Structures are written as SMILES. Read-outs that look alike come from different tables or passages of the source.

Format in all cases: cell-based, Erwinia chrysanthemii
Assay [1] has as its target T1, T6′S ELIC (Dickeya chrysanthemi, UniProt P0C7B7, T236S).
T1 construct: expressed in transfected cells; host or cells: Xenopus laevis oocytes (cRNA injection)
In words: Inhibition of GABA-elicited currents of T6′S ELIC in Xenopus oocytes.

The target in assay [2] is T2, F16′S ELIC (Dickeya chrysanthemi, UniProt P0C7B7, F246S).
T2 construct: expressed in transfected cells; host or cells: Xenopus laevis oocytes (cRNA injection)
In words: Inhibition of GABA-elicited currents of F16′S ELIC in Xenopus oocytes.

A further assay concerns the target T3, T6′S/F16′S ELIC (Dickeya chrysanthemi, UniProt P0C7B7, F246S/T236S).
T3 construct: expressed in transfected cells; host or cells: Xenopus laevis oocytes injected with cRNA transcribed from pGEMHE
T3 sequence (P0C7B7 1-321 T236S/F246S): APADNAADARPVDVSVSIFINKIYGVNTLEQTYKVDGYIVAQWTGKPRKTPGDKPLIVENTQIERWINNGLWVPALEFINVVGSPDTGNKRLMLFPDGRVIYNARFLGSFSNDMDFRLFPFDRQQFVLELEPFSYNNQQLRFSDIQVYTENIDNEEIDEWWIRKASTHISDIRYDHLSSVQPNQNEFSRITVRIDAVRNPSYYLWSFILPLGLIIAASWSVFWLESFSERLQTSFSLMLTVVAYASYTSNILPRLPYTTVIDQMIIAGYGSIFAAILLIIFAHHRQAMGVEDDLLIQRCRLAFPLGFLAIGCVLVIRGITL
Briefly: Inhibition of GABA-elicited currents of T6′S/F16′S ELIC in Xenopus oocytes. As to conditions: inhibition measured at the GABA EC50.

The target in assay [3] is T4, Q2′N ELIC (Dickeya chrysanthemi, UniProt P0C7B7, Q232N).
T4 construct: expressed in transfected cells; host or cells: Xenopus laevis oocytes (cRNA injection)
Briefly: Inhibition of GABA-elicited currents of Q2′N ELIC in Xenopus oocytes.

The target of assay [4] is T5, T6′A ELIC (Dickeya chrysanthemi, UniProt P0C7B7, T236A).
T5 construct: expressed in transfected cells; host or cells: Xenopus laevis oocytes (cRNA injection)
In words: Inhibition of GABA-elicited currents of T6′A ELIC in Xenopus oocytes. On the procedure:
(§1) Xenopus laevis oocyte-positive females were purchased from NASCO (Fort Atkinson, WI) and maintained according to standard methods. Harvested stage V and VI Xenopus oocytes were washed in four changes of Ca^2+-free ND96 [96 mM NaCl, 2 mM KCl, 1 mM MgCl2, and 5 mM HEPES (pH 7.5)], defolliculated in 1.5 mg mL^–1 collagenase type 1A for approximately 2 h, washed again in four changes of ND96, and stored in ND96 at 16 °C containing 2.5 mM sodium pyruvate, […] gentamycin, and 0.7 mM theophylline.
(§2) ELIC (GenBank accession number ADN00343.1) was kindly provided by C. Ulens. For expression in Xenopus oocytes, it was cloned into pGEMHE with the signal sequence of the human α7 nACh receptor. […] Stage V and VI oocytes were injected with 20 ng of cRNA, and currents were recorded 1–3 days postinjection.
(§3) Using two-electrode voltage clamp, Xenopus oocytes were clamped at −60 mV using an OC-725 amplifier (Warner Instruments, Hamden, CT), Digidata 1322A, and the Strathclyde Electrophysiology Software Package (Department of Physiology and Pharmacology, University of Strathclyde, Glasgow, U.K.). Currents were recorded at 5 kHz and filtered at a frequency of 1 kHz. […] Inhibition by test compounds was measured at the GABA EC50 for each mutant. […]

Assay [5] concerns the target T6, F16′A ELIC (Dickeya chrysanthemi, UniProt P0C7B7, F246A).
T6 construct: expressed in transfected cells; host or cells: Xenopus laevis oocytes (cRNA injection)
Briefly: Inhibition of GABA-elicited currents of F16′A ELIC in Xenopus oocytes. As to conditions: inhibition measured at the GABA EC50.

Assay [6] addresses T7, F16′D ELIC (Dickeya chrysanthemi, UniProt P0C7B7, F246D).
T7 construct: expressed in transfected cells; host or cells: Xenopus laevis oocytes (cRNA injection)
In words: Inhibition of GABA-elicited currents of F16′D ELIC in Xenopus oocytes. How it is done:
as §1, §2, §3

Assay [7] deals with T8, F16′W ELIC (Dickeya chrysanthemi, UniProt P0C7B7, F246W).
T8 construct: expressed in transfected cells; host or cells: Xenopus laevis oocytes (cRNA injection)
Briefly: Inhibition of GABA-elicited currents of F16′W ELIC in Xenopus oocytes.

The target in assay [8] is T9, F16′T ELIC (Dickeya chrysanthemi, UniProt P0C7B7, F246T).
T9 construct: expressed in transfected cells; host or cells: Xenopus laevis oocytes (cRNA injection)
Briefly: Inhibition of GABA-elicited currents of F16′T ELIC in Xenopus oocytes.

For assay [9], the target named is T10, F16′E ELIC (Dickeya chrysanthemi, UniProt P0C7B7, F246E).
T10 construct: expressed in transfected cells; host or cells: Xenopus laevis oocytes (cRNA injection)
In words: Inhibition of GABA-elicited currents of F16′E ELIC in Xenopus oocytes.

Assay [10] addresses T4, Q2′N ELIC. In words: GABA activation of Q2′N ELIC, two-electrode voltage clamp in Xenopus oocytes. For orientation: Two-electrode voltage clamp is typically applied to oocytes expressing channels or transporters.
Assay [11] deals with T5, T6′A ELIC. Briefly: GABA activation of T6′A ELIC, two-electrode voltage clamp in Xenopus oocytes.
The target in assay [12] is T1, T6′S ELIC. Briefly: GABA activation of T6′S ELIC, two-electrode voltage clamp in Xenopus oocytes.
Assay [13] concerns the target T6, F16′A ELIC. Briefly: GABA activation of F16′A ELIC, two-electrode voltage clamp in Xenopus oocytes. On the procedure:
as §1, §2, §3

Assay [14] addresses T7, F16′D ELIC. Briefly: GABA activation of F16′D ELIC, two-electrode voltage clamp in Xenopus oocytes.
The target of assay [15] is T10, F16′E ELIC. In words: GABA activation of F16′E ELIC, two-electrode voltage clamp in Xenopus oocytes. How it is done: as §1, §2, §3
The next assay has as its target T11, F16′Q ELIC (Dickeya chrysanthemi, UniProt P0C7B7, F246Q).
T11 construct: expressed in transfected cells; host or cells: Xenopus laevis oocytes (cRNA injection)
Briefly: GABA activation of F16′Q ELIC, two-electrode voltage clamp in Xenopus oocytes.

Another assay addresses T12, F16′L ELIC (Dickeya chrysanthemi, UniProt P0C7B7, F246L).
T12 construct: expressed in transfected cells; host or cells: Xenopus laevis oocytes (cRNA injection)
In words: GABA activation of F16′L ELIC, two-electrode voltage clamp in Xenopus oocytes. How it is done:
as §1, §2, §3

Assay [16] addresses T2, F16′S ELIC. In words: GABA activation of F16′S ELIC, two-electrode voltage clamp in Xenopus oocytes.
For assay [17], the target named is T9, F16′T ELIC. In words: GABA activation of F16′T ELIC, two-electrode voltage clamp in Xenopus oocytes.
Assay [18] addresses T8, F16′W ELIC. In words: GABA activation of F16′W ELIC, two-electrode voltage clamp in Xenopus oocytes.
A further assay deals with T13, F16′Y ELIC (Dickeya chrysanthemi, UniProt P0C7B7, F246Y).
T13 construct: expressed in transfected cells; host or cells: Xenopus laevis oocytes (cRNA injection)
Briefly: GABA activation of F16′Y ELIC, two-electrode voltage clamp in Xenopus oocytes.

A further assay deals with T14, F16′S/T6′S ELIC (Dickeya chrysanthemi, UniProt P0C7B7, F246S/T236S).
T14 construct: expressed in transfected cells; host or cells: Xenopus laevis oocytes (cRNA injection)
Briefly: GABA activation of F16′S/T6′S ELIC, two-electrode voltage clamp in Xenopus oocytes.

In the case of `CCCC(C(=O)OCCN(CC)CC)(c1ccccc1)c1ccccc1` [proadifen], the IC50 is 2.57 µM on T6′S ELIC [1] (T6′S ELIC, inhibition measured at the GABA EC50, read-out: pIC50 (converted)); 5.1 µM at F16′S ELIC [2] (F16′S ELIC, inhibition measured at the GABA EC50, read-out: IC50); 0.9 µM at T6′S/F16′S ELIC (T6′S/F16′S ELIC, read-out: IC50); 0.933 µM on T6′S/F16′S ELIC (T6′S/F16′S ELIC, read-out: pIC50 (converted)).
For the compound `C=C(C)[C@@H]1[C@H]2OC(=O)[C@@H]1[C@]1(O)C[C@H]3O[C@]34C(=O)O[C@H]2[C@]14C` [PXN, Picrotoxinin], the IC50 was 44 µM at Q2′N ELIC [3]; 95 µM on T6′A ELIC [4]; 68 µM against T6′S ELIC [1]; 16 µM against F16′A ELIC [5] (IC50, F16′A ELIC); 16.6 µM on F16′A ELIC [5] (pIC50, F16′A ELIC); 9.4 µM on F16′D ELIC [6]. Further, the IC50 stood at 52 µM on F16′W ELIC [7]; 4.5 µM against F16′S ELIC [2]; 7.2 µM against F16′T ELIC [8]; 26.9 µM at F16′E ELIC [9]; 44 µM against T6′S/F16′S ELIC (IC50, T6′S/F16′S ELIC).
Take `NCCCC(=O)O` [GABA, γ-aminobutyric acid]: the EC50 (in general, the concentration at which the effect is half-maximal) on Q2′N ELIC [10] is 1820 µM; on T6′A ELIC [11] (GABA EC50, T6′A ELIC) it was 800 µM; at T6′A ELIC [11] (GABA pEC50, T6′A ELIC), 851 µM; at T6′S ELIC [12] it was 1780 µM; at F16′A ELIC [13], 4900 µM; on F16′D ELIC [14], 2090 µM. In addition, the EC50 is 26000 µM at F16′E ELIC [15] (GABA EC50, F16′E ELIC); 25700 µM on F16′E ELIC [15] (GABA pEC50, F16′E ELIC); 7760 µM on F16′Q ELIC; 51000 µM on F16′L ELIC (GABA EC50, F16′L ELIC); 51300 µM at F16′L ELIC (GABA pEC50, F16′L ELIC); 7100 µM on F16′S ELIC [16]. For the same compound, the EC50 at F16′T ELIC [17] (GABA EC50, F16′T ELIC) is 11000 µM; on F16′T ELIC [17] (GABA pEC50, F16′T ELIC), 11500 µM; on F16′W ELIC [18] it was 2290 µM; at F16′Y ELIC, 7500 µM; on F16′S/T6′S ELIC, 6400 µM.

For the origin of these results see publication PMC4312132, “Phenylalanine in the Pore of the Erwinia Ligand-Gated Ion Channel Modulates Picrotoxinin Potency but Not Receptor Function” (Biochemistry, 2014).
